Assay results as given in US20070167408A1, “NOVEL ALKYL PHOSPHOLIPID DERIVATIVES WITH REDUCED CYTOTOXICITY AND USES THEREOF” (ZENTARIS GmbH, priority 2005, published 2007).
≈ marks a conversion by molar mass, not a printed value.

Experiments:
Format in all cases: cell-based
[1] = system: Aspergillus fumigatus 322-384; test: Anti-fungal broth microdilution (MIC), fungus B; details: filamentous protocol, more than 50% growth inhibition, 48 to 72 h
Procedure: (§1) Anti-fungal activity of selected compounds of the invention was assessed by means of anti-fungal susceptibility tests as follows.
(§2) The antifungal activities of the compounds of the invention against different fungi were measured according to standard broth microdilution methods of the US National Committee for Clinical Laboratory standards (NCCLS) for yeasts (NCCLS document M27-A, 1997) and filamentous fungi (NCCLS document M38-A, 2002).
(§3) Stock solutions of compounds of the invention were freshly prepared on the days of experiments equal to 1.28 mg/10 ml media. Serial dilutions were performed to achieve the following testing concentrations: 64 μg/ml, 32 μg/ml, 16 μg/ml, 8 μg/ml, 4 μg/ml, 2 μg/ml, 1 μg/ml, 0.5 μg/ml, 0.25 μg/ml and 0.125 μg/ml.
(§4) An inoculum of 10^6 CFU/ml of the fungi strain was prepared in the appropriate medium and transferred to test tubes for incubation.
(§5) The method is used to determine the minimum inhibitory concentrations (MIC) of drugs on fungi strains. […] For the filamentous fungi protocol, MIC determination took place after 48 to 72 h of culture at 35° C. and was defined at that concentration which produced more than 50% visible growth inhibition.

[2] = system: Cryptococcus gattii ATCC 32608; test: Anti-fungal broth microdilution (MIC), fungus J; details: yeast protocol, more than 80% inhibition, 48 h
Procedure: as §1, §2, §3, §4, §5

[3] = system: Candida parapsilosis ATCC 22019; test: Anti-fungal broth microdilution (MIC), fungus G; details: yeast protocol, more than 80% inhibition, 48 h
Procedure: as §1, §2, §3, §4, §5

[4] = system: Aspergillus fumigatus 040-200167; test: Anti-fungal broth microdilution (MIC), fungus C; details: filamentous protocol, more than 50% growth inhibition, 48 to 72 h
Procedure: as §1, §2, §3, §4, §5

[5] = system: Cryptococcus neoformans ATCC 90112; test: Anti-fungal broth microdilution (MIC), fungus H; details: yeast protocol, more than 80% inhibition, 48 h
Procedure: as §1, §2, §3, §4, §5

[6] = system: Candida albicans ATCC 10231; test: Anti-fungal broth microdilution (MIC), fungus D; details: yeast protocol, more than 80% inhibition, 48 h
Procedure: as §1, §2, §3, §4, §5

[7] = system: Aspergillus fumigatus ATCC 204305; test: Anti-fungal broth microdilution (MIC), fungus A; details: filamentous protocol, more than 50% growth inhibition, 48 to 72 h
Procedure: as §1, §2, §3, §4, §5

[8] = system: Cryptococcus neoformans H99; test: Anti-fungal broth microdilution (MIC), fungus I; details: yeast protocol, more than 80% inhibition, 48 h
Procedure: as §1, §2, §3, §4, §5

[9] = system: Candida albicans ATCC 90028; test: Anti-fungal broth microdilution (MIC), fungus E; details: yeast protocol, more than 80% inhibition, 48 h
Procedure: as §1, §2, §3, §4, §5

[10] = system: Candida albicans TS3; test: Anti-fungal broth microdilution (MIC), fungus F; details: yeast protocol, more than 80% inhibition, 48 h
Procedure: as §1, §2, §3, §4, §5

Structure (SMILES)	MIC, fungus B [1]	MIC, fungus J [2]	MIC, fungus G [3]	MIC, fungus C [4]	MIC, fungus H [5]	MIC, fungus D [6]	MIC, fungus A [7]	MIC, fungus I [8]	MIC, fungus E [9]	MIC, fungus F [10]
CCCCCCCCCCCCCCCCCCOP(=O)([O-])OCC[As+](C)(C)C [Compound 22, Phosphoric acid octadecyl ester 2-(N,N,N-trimethyl-arsen)-ethyl ester]	2 µg/mL	0.5 µg/mL	1 µg/mL	3 µg/mL	1.5 µg/mL	0.5 µg/mL	3 µg/mL	6.6 µg/mL	1 µg/mL	1 µg/mL
CCCCCCCC/C=C\CCCCCCCCCCCCOP(=O)([O-])OCC[N+](C)(C)C [ErPC, (13Z)-docosenylphosphocholine, reference compound]	>64 µg/mL	1.5 µg/mL (≈ 3.06 µM)	64 µg/mL (≈ 131 µM)	>64 µg/mL	4 µg/mL (≈ 8.17 µM)	>64 µg/mL	>64 µg/mL	3 µg/mL (≈ 6.13 µM)	>64 µg/mL	64 µg/mL (≈ 131 µM)
